In US11370798B2 (Vertex Pharmaceuticals Incorporated, priority 2012, dated 2022):

Tested on: HCT116 colorectal cancer cells
Assay: Cisplatin sensitization assay (96 h cell viability MTS);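 note: Test-compound concentration that lowers the Cisplatin IC50 by a set fold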
Type: cell-based
Details: compound and Cisplatin added simultaneously, Cisplatin sensitization value
How it was run: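 Viability read by MTS (1 h at 37° C) after 96 h co-exposure at 37° C, 5% CO2. Test compound and cisplatin were dosed simultaneously in a full concentration matrix, each 2-fold serially diluted from 10 μM final; sensitization values binned in μM.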

| Structure (SMILES) | Cisplatin Sensitization Assay |
| --- | --- |
| CC1(C)CN(C(=O)C2CCN(c3c(F)cncc3NC(=O)c3c(N)nn4cc(F)cnc34)CC2)CCN1 [I-G-27, 2-amino-N-(4-(4-(3,3-dimethylpiperazine-1-carbonyl)piperidin-1-yl)-5-fluoropyridin-3-yl)-6-fluoropyrazolo[1,5-a]pyrimidine-3-carboxamide] | ++ (Cisplatin sensitization value>0.02 μM but <0.2 μM) |
| Nc1nn2cc(F)cnc2c1C(=O)Nc1cncc(F)c1N1CCC(C(=O)N2CCNC3(CC3)C2)CC1 [I-G-28, N-(4-(4-(4,7-diazaspiro[2.5]octane-7-carbonyl)piperidin-1-yl)-5-fluoropyridin-3-yl)-2-amino-6-fluoropyrazolo[1,5-a]pyrimidine-3-carboxamide] | +++ (Cisplatin sensitization value of <0.02 μM) |
| CN(C)C(=O)C1CCN(c2c(F)cncc2NC(=O)c2c(N)nn3cc(F)cnc23)CC1 [I-G-29, 2-amino-N-(4-(4-(dimethylcarbamoyl)piperidin-1-yl)-5-fluoropyridin-3-yl)-6-fluoropyrazolo[1,5-a]pyrimidine-3-carboxamide] | +++ (Cisplatin sensitization value of <0.02 μM) |
| CN(C)CCNC(=O)C1CCN(c2c(F)cncc2NC(=O)c2c(N)nn3cc(F)cnc23)CC1 [I-G-30, 2-amino-N-(4-(4-((2-(dimethylamino)ethyl)carbamoyl)piperidin-1-yl)-5-fluoropyridin-3-yl)-6-fluoropyrazolo[1,5-a]pyrimidine-3-carboxamide] | +++ (Cisplatin sensitization value of <0.02 μM) |
| CN(C)CCN(C)C(=O)C1CCN(c2c(F)cncc2NC(=O)c2c(N)nn3cc(F)cnc23)CC1 [I-G-31, 2-amino-N-(4-(4-((2-(dimethylamino)ethyl)(methyl)carbamoyl)piperidin-1-yl)-5-fluoropyridin-3-yl)-6-fluoropyrazolo[1,5-a]pyrimidine-3-carboxamide] | +++ (Cisplatin sensitization value of <0.02 μM) |
| Nc1nn2cc(F)cnc2c1C(=O)Nc1cncc(F)c1N1CCC(C(=O)N2CCN(C3COC3)CC2)CC1 [I-G-32, 2-amino-6-fluoro-N-[5-fluoro-4-[4-[4-(oxetan-3-yl)piperazine-1-carbonyl]-1-piperidyl]-3-pyridyl]pyrazolo[1,5-a]pyrimidine-3-carboxamide] | +++ (Cisplatin sensitization value of <0.02 μM) |
| CNC(=O)C1CCN(c2c(F)cncc2NC(=O)c2c(N)nn3cc(F)cnc23)CC1 [I-G-33, 2-amino-6-fluoro-N-(5-fluoro-4-(4-(methylcarbamoyl)piperidin-1-yl)pyridin-3-yl)pyrazolo[1,5-a]pyrimidine-3-carboxamide] | +++ (Cisplatin sensitization value of <0.02 μM) |
| CNC1CN(C(=O)C2CCN(c3c(F)cncc3NC(=O)c3c(N)nn4cc(F)cnc34)CC2)C1 [I-G-34, 2-amino-6-fluoro-N-(5-fluoro-4-(4-(3-(methylamino)azetidine-1-carbonyl)piperidin-1-yl)pyridin-3-yl)pyrazolo[1,5-a]pyrimidine-3-carboxamide] | +++ (Cisplatin sensitization value of <0.02 μM) |
| Nc1nn2cc(F)cnc2c1C(=O)Nc1cncc(F)c1N1CCC(C(=O)N2CCN(C3CCC3)CC2)CC1 [I-G-35, 2-amino-N-(4-(4-(4-cyclobutylpiperazine-1-carbonyl)piperidin-1-yl)-5-fluoropyridin-3-yl)-6-fluoropyrazolo[1,5-a]pyrimidine-3-carboxamide] | +++ (Cisplatin sensitization value of <0.02 μM) |
| Nc1nn2cc(F)cnc2c1C(=O)Nc1cncc(F)c1N1CCC(C(=O)N2CCOCC2)CC1 [I-G-36, 2-amino-6-fluoro-N-(5-fluoro-4-(4-(morpholine-4-carbonyl)piperidin-1-yl)pyridin-3-yl)pyrazolo[1,5-a]pyrimidine-3-carboxamide] | +++ (Cisplatin sensitization value of <0.02 μM) |
| Nc1nn2cc(F)cnc2c1C(=O)Nc1cncc(F)c1N1CCC(C(=O)NC2COC2)CC1 [I-G-37, 2-amino-6-fluoro-N-(5-fluoro-4-(4-(oxetan-3-ylcarbamoyl)piperidin-1-yl)pyridin-3-yl)pyrazolo[1,5-a]pyrimidine-3-carboxamide] | ++ (Cisplatin sensitization value>0.02 μM but <0.2 μM) |
| CN1CCN(C(=O)C2CCN(c3c(F)cncc3NC(=O)c3c(N)nn4cc(F)cnc34)CC2)CC12CC2 [I-G-38, 2-amino-6-fluoro-N-(5-fluoro-4-(4-(4-methyl-4,7-diazaspiro[2.5]octane-7-carbonyl)piperidin-1-yl)pyridin-3-yl)pyrazolo[1,5-a]pyrimidine-3-carboxamide] | +++ (Cisplatin sensitization value of <0.02 μM) |
| COCCN(C)C(=O)C1CCN(c2c(F)cncc2NC(=O)c2c(N)nn3cc(F)cnc23)CC1 [I-G-40, 2-amino-6-fluoro-N-(5-fluoro-4-(4-((2-methoxyethyl)(methyl)carbamoyl)piperidin-1-yl)pyridin-3-yl)pyrazolo[1,5-a]pyrimidine-3-carboxamide] | +++ (Cisplatin sensitization value of <0.02 μM) |
| Nc1nn2cc(F)cnc2c1C(=O)Nc1cncc(F)c1N1CCC(C(=O)N2CC(O)C2)CC1 [I-G-41, 2-amino-6-fluoro-N-(5-fluoro-4-(4-(3-hydroxyazetidine-1-carbonyl)piperidin-1-yl)pyridin-3-yl)pyrazolo[1,5-a]pyrimidine-3-carboxamide] | +++ (Cisplatin sensitization value of <0.02 μM) |
| Nc1nn2cc(F)cnc2c1C(=O)Nc1cncc(F)c1N1CCC(C(=O)NCCN2CCC2)CC1 [I-G-42, 2-amino-N-(4-(4-((2-(azetidin-1-yl)ethyl)carbamoyl)piperidin-1-yl)-5-fluoropyridin-3-yl)-6-fluoropyrazolo[1,5-a]pyrimidine-3-carboxamide] | +++ (Cisplatin sensitization value of <0.02 μM) |
| Nc1nn2cc(F)cnc2c1C(=O)Nc1cncc(F)c1N1CCC(C(=O)N2CC(N3CCCC3)C2)CC1 [I-G-43, 2-amino-6-fluoro-N-(5-fluoro-4-(4-(3-(pyrrolidin-1-yl)azetidine-1-carbonyl)piperidin-1-yl)pyridin-3-yl)pyrazolo[1,5-a]pyrimidine-3-carboxamide] | +++ (Cisplatin sensitization value of <0.02 μM) |
| Nc1nn2cc(F)cnc2c1C(=O)Nc1cncc(F)c1N1CCC(C(=O)N2CC3CCC(C2)N3)CC1 [I-G-44, N-(4-(4-(3,8-diazabicyclo[3.2.1]octane-3-carbonyl)piperidin-1-yl)-5-fluoropyridin-3-yl)-2-amino-6-fluoropyrazolo[1,5-a]pyrimidine-3-carboxamide] | +++ (Cisplatin sensitization value of <0.02 μM) |
| C[C@@H]1CN(C(=O)C2CCN(c3c(F)cncc3NC(=O)c3c(N)nn4cc(F)cnc34)CC2)CCN1 [I-G-45, (R)-2-amino-6-fluoro-N-(5-fluoro-4-(4-(3-methylpiperazine-1-carbonyl)piperidin-1-yl)pyridin-3-yl)pyrazolo[1,5-a]pyrimidine-3-carboxamide] | +++ (Cisplatin sensitization value of <0.02 μM) |
| Nc1nn2cc(F)cnc2c1C(=O)Nc1cncc(F)c1N1CCC(C(=O)N2CCN3CCC2C3)CC1 (centres unmarked) [I-G-46, N-(4-(4-(1,4-diazabicyclo[3.2.1]octane-4-carbonyl)piperidin-1-yl)-5-fluoropyridin-3-yl)-2-amino-6-fluoropyrazolo[1,5-a]pyrimidine-3-carboxamide] | +++ (Cisplatin sensitization value of <0.02 μM) |
| C[C@H]1CN(C(=O)C2CCN(c3c(F)cncc3NC(=O)c3c(N)nn4cc(F)cnc34)CC2)CCN1C [I-G-47, (S)-2-amino-N-(4-(4-(3,4-dimethylpiperazine-1-carbonyl)piperidin-1-yl)-5-fluoropyridin-3-yl)-6-fluoropyrazolo[1,5-a]pyrimidine-3-carboxamide] | +++ (Cisplatin sensitization value of <0.02 μM) |
| Nc1nn2cc(F)cnc2c1C(=O)Nc1cncc(Cl)c1N1CCC(C(=O)N2CCNCC2)CC1 [I-G-48, 2-amino-N-(5-chloro-4-(4-(piperazine-1-carbonyl)piperidin-1-yl)pyridin-3-yl)-6-fluoropyrazolo[1,5-a]pyrimidine-3-carboxamide] | +++ (Cisplatin sensitization value of <0.02 μM) |
| Nc1nn2cc(F)cnc2c1C(=O)Nc1cncc(F)c1N1CCC(C(=O)N2CC(N3CCC3)C2)CC1 [I-G-49, N-(4-(4-([1,3′-biazetidine]-1′-carbonyl)piperidin-1-yl)-5-fluoropyridin-3-yl)-2-amino-6-fluoropyrazolo[1,5-a]pyrimidine-3-carboxamide] | +++ (Cisplatin sensitization value of <0.02 μM) |
| C[C@@H]1CN(C(=O)C2CCN(c3c(F)cncc3NC(=O)c3c(N)nn4cc(F)cnc34)CC2)CCN1C [I-G-50, (R)-2-amino-N-(4-(4-(3,4-dimethylpiperazine-1-carbonyl)piperidin-1-yl)-5-fluoropyridin-3-yl)-6-fluoropyrazolo[1,5-a]pyrimidine-3-carboxamide] | +++ (Cisplatin sensitization value of <0.02 μM) |
| Nc1nn2cc(F)cnc2c1C(=O)Nc1cncc(F)c1N1CCC(C(=O)N2CC3CNCC3C2)CC1 (centres unmarked) [I-G-51, 2-amino-6-fluoro-N-(5-fluoro-4-(4-(octahydropyrrolo[3,4-c]pyrrole-2-carbonyl)piperidin-1-yl)pyridin-3-yl)pyrazolo[1,5-a]pyrimidine-3-carboxamide] | +++ (Cisplatin sensitization value of <0.02 μM) |
| CN1C2CCC1CN(C(=O)C1CCN(c3c(F)cncc3NC(=O)c3c(N)nn4cc(F)cnc34)CC1)C2 [I-G-52, 2-amino-6-fluoro-N-(5-fluoro-4-(4-(8-methyl-3,8-diazabicyclo[3.2.1]octane-3-carbonyl)piperidin-1-yl)pyridin-3-yl)pyrazolo[1,5-a]pyrimidine-3-carboxamide] | +++ (Cisplatin sensitization value of <0.02 μM) |
| CN1CC2CC1CN2C(=O)C1CCN(c2c(F)cncc2NC(=O)c2c(N)nn3cc(F)cnc23)CC1 (centres unmarked) [I-G-53, 2-amino-6-fluoro-N-(5-fluoro-4-(4-(5-methyl-2,5-diazabicyclo[2.2.1]heptane-2-carbonyl)piperidin-1-yl)pyridin-3-yl)pyrazolo[1,5-a]pyrimidine-3-carboxamide] | +++ (Cisplatin sensitization value of <0.02 μM) |
